Test results published in paper doi:10.1101/2025.08.13.670122v1 (bioRxiv, 2025).
Peptide text beside a SMILES is read from it.

Experiments:
AT1R [1] = biological target: T1, AT1R (Homo sapiens, UniProt P30556); assay: β-arrestin2 recruitment BRET (β-arrestin2-RLucII/rGFP-CAAX) in HEK293 cells expressing AT1R; format: cell-based; set-up: expressed in transfected cells; host or cells: HEK293 cells, transient PEI transfection; conditions: for EC50: HEK293 cells transiently expressing AT1R, β-arrestin2-RLucII/rGFP-CAAX BRET, read 10 min after ligand, mean ± SEM of at least three to five independent experiments, SEM, read-out: EC50 βarr2; for Emax βarr2 (% AngII): HEK293/AT1R, β-arrestin2 BRET, response of the ligand at 10 μM, normalised to AngII
T1 sequence (P30556 1-359): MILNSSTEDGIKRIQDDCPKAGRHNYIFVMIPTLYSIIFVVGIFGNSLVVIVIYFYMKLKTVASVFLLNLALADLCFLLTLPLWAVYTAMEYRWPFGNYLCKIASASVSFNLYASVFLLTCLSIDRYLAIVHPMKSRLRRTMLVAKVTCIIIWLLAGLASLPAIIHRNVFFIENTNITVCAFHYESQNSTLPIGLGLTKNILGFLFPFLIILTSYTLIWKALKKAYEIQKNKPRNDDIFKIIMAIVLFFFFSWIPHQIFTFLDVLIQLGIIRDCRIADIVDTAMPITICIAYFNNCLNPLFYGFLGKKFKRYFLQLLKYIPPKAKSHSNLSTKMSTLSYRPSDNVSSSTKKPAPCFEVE
Source text: (§1) We utilized a clonal cell line HEK293, referred to hereafter as HEK293 cells, which has been previously described.[7],[8] As a gracious gift from A. Inoue (Tohoku University, Sendai, Miyagi, Japan), CRISPR Gαq/11 and Gα12/13 knockout cell lines (ΔGq/11 and ΔG12/13, respectively), were derived as previously explained.[48] In brief, a CRISPR-Cas9 system was used to target either GNAQ and GNA11 or GNA12 and GNA13 genes in HEK293T cells simultaneously to generate the Gαq/11 and Gα12/13 knockout cell lines. For the production of adenovirus, we utilized HEK293A cells. All cells were grown in DMEM supplemented with 10% FBS and Penicillin-Streptomycin-L-Glutamine (10000 IU penicillin, 10000 µg/mL Streptomycin, 200 mM L-Glutamine) at 37°C in T175 flasks under a 5% CO2 humidified chamber. Periodic testing was carried out for mycoplasma contamination (ABM™, Mycoplasma PCR Detection kit). For all biosensors used, cells underwent transfection with the PEI reagent, employing a PEI:DNA ratio of 3:1. For the Gαq biosensor, HEK293 cells were transfected with the plasmids coding for Gαq-RLucII (120 ng), Gβ1 (3000 ng), Gγ1-GFP10 (3000 ng), human AT1 (3000 ng) and Salmon sperm DNA (SSD) (880 ng). For the β-arrestin2 recruitment assay, HEK293 cells were transfected with the plasmids coding for 120 ng β-arrestin-2-RLucII, 3000 ng AT1, 3000 ng rGFP-CAAX, and 3880 ng SSD. For the measurement of PKC, HEK293 cells were transfected with 3000 ng AT1, 600 ng PKC-c1b, and 6400 ng SSD. […] 100 µL of the cell/DNA mixture was added to white 96-well plates and incubated at 37°C at 5% CO2 for 48 h. For the Rho assay, ΔG12/13 cells were seeded at a density of 9,000 cells per well in poly-ornithine-coated white 96-well plates and transfected the following day. In brief, 1 μg of total DNA in 100 μL of PBS was mixed with 100 μL of PBS containing 3 μL of 1 mg/mL PEI. For Rho signaling, 150 ng of AT1R DNA with 25 ng of PKN-RBD-RlucII [8], and 100 ng of rGFP-CAAX were used. Empty pcDNA was used to reach 1 µg of the total DNA amount in 100 μL of PBS. The DNA was then mixed with 100 μL of PBS containing 3 μL of 1 mg/mL PEI. After a 20-min incubation, the DNA/PEI complexes were dispensed into cells in 96-well plates (15 µL/well), and the experiment was carried out 48 h post-transfection.
(§2) On the day of the experiment, each well was washed with 80 µL of Tyrode’s buffer (140 mM NaCl, 2.7 mM KCl, 1 mM CaCl2, 12 mM NaHCO3, 5.6 mM D-glucose, 0.5 mM MgCl2, 0.37 mM NaH2PO4, 25 mM Hepes (pH 7.4)). This was followed by incubation for 1 h in Tyrode’s buffer at room temperature. For the Gαq, β-arrestin-2, and PKC biosensors used in HEK293 cells, coelenterazine 400A (at a final concentration of 5 μM) was added 10 min before stimulation. Cells were then stimulated with increasing doses of the indicated ligand, and BRET signals were measured using a Tristar2 (Berthold) microplate reader 10 min later. For the PKC and Rho biosensors in VSMCs, and the Rho biosensor in ΔG12/13 cells, cells were similarly stimulated with ligands for 1 min, 1 min 30 s, and 3 min, respectively, before BRET measurement. […] BRET signals were then measured using a Synergy2 (BioTek) microplate reader. The applied filter set was 410/80 nm and 515/30 nm, designed to detect the light emissions of RlucII (Renilla luciferase) (donor) and rGFP (acceptor), respectively.

AT1R [2] = biological target: T1, AT1R; assay: Gαq activation BRET (GABY sensor) in HEK293 cells expressing AT1R; format: cell-based; set-up: expressed in transfected cells; host or cells: HEK293 cells, transient PEI transfection; conditions: for EC50: HEK293 cells transiently expressing human AT1R, Gαq-RlucII/Gβ1/Gγ1-GFP10 (GABY) BRET sensor, BRET read 10 min after ligand, mean ± SEM of at least three to five independent experiments; for Emax Gαq (% AngII): HEK293/AT1R, GABY BRET sensor, response of the ligand at 10 μM, normalised to AngII
Source text: as §1, §2

| SMILES | EC50 (AT1R [1]) | EC50 (AT1R [2]; SEM) | Emax βarr2 (% AngII) (AT1R [1]) | EC50 (AT1R [2]) | Emax Gαq (% AngII) (AT1R [2]) |
| --- | --- | --- | --- | --- | --- |
| CC[C@H](C)[C@H](NC(=O)[C@H](Cc1ccc(O)cc1)NC(=O)[C@@H](NC(=O)[C@H](CCCN=C(N)N)NC(=O)[C@@H](N)CC(=O)O)C(C)C)C(=O)N[C@@H](Cc1c[nH]cn1)C(=O)N1CCC[C@H]1C(=O)N[C@@H](Cc1c[nH]c2ccccc12)C(=O)O [compound 21] (H-DRVYIHPW-OH) | 2.2 ± 0.4 nM | 4.7 ± 1.1 nM | – | – | – |
| CC[C@H](C)[C@H](NC(=O)[C@H](Cc1ccc(O)cc1)NC(=O)[C@@H](NC(=O)[C@H](CCCN=C(N)N)NC(=O)[C@@H](N)CC(=O)O)C(C)C)C(=O)N[C@@H](Cc1c[nH]cn1)C(=O)N1CCC[C@H]1C(=O)N[C@@H](Cc1ccc(O)cc1)C(=O)O [24c] (H-DRVYIHPY-OH) | 2.6 ± 0.8 nM | 4.2 ± 1.3 nM | – | – | – |
| CC[C@H](C)[C@H](NC(=O)[C@H](Cc1ccc(O)cc1)NC(=O)[C@@H](NC(=O)[C@H](CCCNC(=N)N)NC(=O)[C@@H](N)CC(=O)O)C(C)C)C(=O)N[C@@H](Cc1c[nH]cn1)C(=O)N1CCC[C@H]1C(=O)N[C@@H](CCCN)C(=O)O [compound 5] | 4560 ± 3880 nM | – | 45 % AngII | > 10000 nM | – |
| CC[C@H](C)[C@H](NC(=O)[C@H](Cc1ccc(O)cc1)NC(=O)[C@@H](NC(=O)[C@H](CCCNC(=N)N)NC(=O)[C@@H](N)CC(=O)O)C(C)C)C(=O)N[C@@H](Cc1c[nH]cn1)C(=O)N1CCC[C@H]1C(=O)N[C@@H](Cc1ccccn1)C(=O)O [compound 19] | 2.2 ± 0.4 nM | 6.9 ± 2.6 nM | 101 % AngII | – | 48 % AngII |
| CCCC[C@H](NC(=O)[C@@H]1CCCN1C(=O)[C@H](Cc1c[nH]cn1)NC(=O)[C@@H](NC(=O)[C@H](Cc1ccc(O)cc1)NC(=O)[C@@H](NC(=O)[C@H](CCCNC(=N)N)NC(=O)[C@@H](N)CC(=O)O)C(C)C)[C@@H](C)CC)C(=O)O [compound 2] | 0.86 ± 0.16 nM | 3 ± 3.6 nM | 92 % AngII | – | 36 % AngII |
| CC[C@H](C)[C@H](NC(=O)[C@H](Cc1ccc(O)cc1)NC(=O)[C@@H](NC(=O)[C@H](CCCNC(=N)N)NC(=O)[C@@H](N)CC(=O)O)C(C)C)C(=O)N[C@@H](Cc1c[nH]cn1)C(=O)N1CCC[C@H]1C(=O)N[C@@H](Cc1c[nH]c2ccccc12)C(=O)O [compound 21] (H-DRVYIHPW-OH; N-terminus assumed) | – | – | 107 % AngII | – | 91 % AngII |
| CC[C@H](C)[C@H](NC(=O)[C@H](Cc1ccc(O)cc1)NC(=O)[C@@H](NC(=O)[C@H](CCCNC(=N)N)NC(=O)[C@@H](N)CC(=O)O)C(C)C)C(=O)N[C@@H](Cc1c[nH]cn1)C(=O)N1CCC[C@H]1C(=O)N[C@@H](Cc1cccc(O)c1)C(=O)O [24b] | 2.8 ± 0.6 nM | 4.6 ± 3 nM | 93 % AngII | – | 49 % AngII |
| CC[C@H](C)[C@H](NC(=O)[C@H](Cc1ccc(O)cc1)NC(=O)[C@@H](NC(=O)[C@H](CCCNC(=N)N)NC(=O)[C@@H](N)CC(=O)O)C(C)C)C(=O)N[C@@H](Cc1c[nH]cn1)C(=O)N1CCC[C@H]1C(=O)N[C@@H](CC1CCCCC1)C(=O)O [compound 4] | 1.4 ± 0.2 nM | 5.5 ± 3.9 nM | 95 % AngII | – | 52 % AngII |
| CC[C@H](C)[C@H](NC(=O)[C@H](Cc1ccc(O)cc1)NC(=O)[C@@H](NC(=O)[C@H](CCCNC(=N)N)NC(=O)[C@@H](N)CC(=O)O)C(C)C)C(=O)N[C@@H](Cc1c[nH]cn1)C(=O)N1CCC[C@H]1C(=O)N[C@@H](Cc1ccncc1)C(=O)O [compound 17] | 5.2 ± 1 nM | 7.5 ± 6.3 nM | 105 % AngII | – | 37 % AngII |
| CC[C@H](C)[C@H](NC(=O)[C@H](Cc1ccc(O)cc1)NC(=O)[C@@H](NC(=O)[C@H](CCCNC(=N)N)NC(=O)[C@@H](N)CC(=O)O)C(C)C)C(=O)N[C@@H](Cc1c[nH]cn1)C(=O)N1CCC[C@H]1C(=O)N[C@@H](Cc1cccc2ccccc12)C(=O)O [compound 8] | 2.1 ± 0.4 nM | 8.3 ± 5.1 nM | 101 % AngII | – | 61 % AngII |
| CC[C@H](C)[C@H](NC(=O)[C@H](Cc1ccc(O)cc1)NC(=O)[C@@H](NC(=O)[C@H](CCCNC(=N)N)NC(=O)[C@@H](N)CC(=O)O)C(C)C)C(=O)N[C@@H](Cc1c[nH]cn1)C(=O)N1CCC[C@H]1C(=O)N[C@@H](Cc1ccc(O)cc1)C(=O)O [24c] (H-DRVYIHPY-OH) | – | – | 105 % AngII | – | 89 % AngII |
| CC[C@H](C)[C@H](NC(=O)[C@H](Cc1ccc(O)cc1)NC(=O)[C@@H](NC(=O)[C@H](CCCNC(=N)N)NC(=O)[C@@H](N)CC(=O)O)C(C)C)C(=O)N[C@@H](Cc1c[nH]cn1)C(=O)N1CCC[C@H]1C(=O)N[C@@H](Cc1ccc2ccccc2c1)C(=O)O [compound 9] | 1 ± 0.3 nM | 3.9 ± 1.9 nM | 97 % AngII | – | 69 % AngII |
| CC[C@H](C)[C@H](NC(=O)[C@H](Cc1ccc(O)cc1)NC(=O)[C@@H](NC(=O)[C@H](CCCNC(=N)N)NC(=O)[C@@H](N)CC(=O)O)C(C)C)C(=O)N[C@@H](Cc1c[nH]cn1)C(=O)N1CCC[C@H]1C(=O)N[C@@H](CCC(N)=O)C(=O)O [compound 7] (H-DRVYIHPQ-OH; N-terminus assumed) | 158 ± 20 nM | – | 56 % AngII | > 10000 nM | – |
| CC[C@H](C)[C@H](NC(=O)[C@H](Cc1ccc(O)cc1)NC(=O)[C@@H](NC(=O)[C@H](CCCNC(=N)N)NC(=O)[C@@H](N)CC(=O)O)C(C)C)C(=O)N[C@@H](Cc1c[nH]cn1)C(=O)N1CCC[C@H]1C(=O)N[C@H](C(=O)O)C(C)(C)C [compound 3] | 2.3 ± 0.4 nM | 0.36 ± 0.84 nM | 81 % AngII | – | 19 % AngII |
| CC[C@H](C)[C@H](NC(=O)[C@H](Cc1ccc(O)cc1)NC(=O)[C@@H](NC(=O)[C@H](CCCNC(=N)N)NC(=O)[C@@H](N)CC(=O)O)C(C)C)C(=O)N[C@@H](Cc1c[nH]cn1)C(=O)N1CCC[C@H]1C(=O)N[C@@H](CCC(=O)O)C(=O)O [compound 6] (H-DRVYIHPE-OH; N-terminus assumed) | 957 ± 111 nM | – | 63 % AngII | > 10000 nM | – |
